According to patent US11434490B2, “Fluorogen-binding RNA aptamers” (CENTRE NATIONAL DE LA RECHERCHE SCIENTIFIQUE, priority 2017, dated 2022):
Read-outs that look alike come from different tables or passages of the source.

Key:
[1] = Formaldehyde resistance assay; format: physicochemical; conditions: in vitro, TO1-Biotin
Procedure: FIG. 15|Effect of formaldehyde on Mango fluorescence. […] In (b) RNA is incubated with the corresponding amounts of formaldehyde first for one hour, then TO1-Biotin is added. Data for each panel is normalized to RFU at the 0% formaldehyde, 0 min point.
RNA Mango aptamers were incubated with TO1-Biotin in WB buffer for at least one hour until equilibrium fluorescence was reached. […] Fluorescence was measured as a kinetic run at a rate of 2 readings per minute using a Varian Cary Eclipse Fluorescence Spectrophotometer, ex/em=510±2.5/535±5 nm.

[2] = Salt dependence of Mango/TO1-Biotin fluorescence: Na+ in place of K+; format: binding
Procedure: (§1) FIG. 10|Salt dependence of new Mango variants. Dependence of fluorescence of each Mango for (a) K^+, (b) Na^+ in place of K^+, and (c) Mg^2+ ions in a buffer containing 140 mM K^+. […] 10 mM Tris buffer (pH 7.2) was used in place of phosphate of the WB buffer to avoid monovalent counter ions. Color-coding is as follows: Black—Mango I, Blue—Mango II, Green—Mango III, Orange—Mango IV. Hill coefficients are fitted to dark points. Points in lighter shade have been excluded from the fit. Error bars are standard deviations of three replicates.

[3] = Salt dependence of Mango/TO1-Biotin fluorescence: Mg2+ titration; conditions: in the presence of potassium; Mg2+ 256 mM
Procedure: as §1

[4] = read-out: Kd for TO1-Biotin, original RNA Mango, earlier work, cited from earlier work
[5] = original RNA Mango, earlier work; read-out: Kd for TO3-Biotin; cited from earlier work
[6] = Brightness and photophysics of Mango fluorophore complexes; format: physicochemical; conditions: for brighter than Mango-I: TO1-Biotin, FIG. 2b
From the text: (§2) FIG. 2|RNA Mango I, II, III and IV core sequences and their properties. (a) Color coded alignment of RNA Mango I, II, III and IV. G residues in yellow are protected from DMS cleavage (data from panel d) when folded in the presence of fluorophore. Quadruplex stacks and their associated propeller sequences are numbered 1 through 4. The GAAA isolation motif of Mango I, together with two adenines essential for binding, are shown in green and red respectively. Purple shading represents a flanking stem region common for all four Mango aptamers. Schematic: A tertiary structure schematic of Mango I, showing tier 1, 2 and 3 of its quadruplex structure (T1, T2 and T3) and color-coded as in (a). […] Bottom: Top view of the Mango I core (PBD ID: 5V3F), showing the T3 tier of the quadruplex and relevant propeller residues, color coding matches the schematic and panel a. […] KD values are shown next to each titration. (c) Same as for panel b but using 20 nM TO3-Biotin. Data for panels b and c have been normalized such that Mango I has a maximum fluorescence of 1. Error bars are standard deviation of three replicates. (d) DMS chemical protection patterns for the four Mango aptamers. 3′ end-labelled RNA (terminal ^32pCp shown as a black asterisk) was subjected to DMS chemical modification followed by reduction by NaBH4 and aniline cleavage as described in the methods. […] Legend: T1—denatured T1 ladder; OH—partial alkaline hydrolysis ladder; (−) DMS—denatured reaction with ddH2O added in place of DMS; 80° C.
FIG. 13|Photophysics: excitation/emission. (a) Excitation (dark curve) and emission (light curve) spectra of each Mango. All Mangos have Δex max=510 nm and Δem max=535 nm. Color-coding is as follows: Black—Mango I, Blue—Mango II, Green—Mango III, Red—Mango IV.
(§3) Fluorescence data was gathered using a Varian Cary Eclipse Spectrophotometer unless otherwise stated. […] Fluorescence was measured at the maximum excitation and emission wavelengths of each complex (FIG. 13).

[7] = Photobleaching under constant illumination; conditions: identical illumination conditions, on average
Procedure: FIG. 16|Formation of 5S-Mango foci and their dynamics in live cells. (a) 5S-Mango IV imaged post cell fixation at 5, 15, 30 and 60 mins after transfection using Lipofectamine based CRISPRMAX transfection reagent. […] (c) Root mean-squared displacement (RMSD) of three observed foci with different diffusive behaviors, fast (Green), slow (Blue) and static (Red) shown in Video 3. Scale bars are 10 μm and arrows indicate foci of interest. (d) Normalized photobleaching traces of 5S-F30-Mango I and IV compared to 5S-F30-dBroccoli under constant illumination with an exposure time of 200 ms. Photobleaching half-lives are stated in the table adjacent and were calculated from an exponential fit of each curve.

[8] = Salt dependence of Mango/TO1-Biotin fluorescence: K+ titration; format: binding; conditions: for Kd / Hill Coefficients K^+: 25 nM RNA, 50 nM TO1-Biotin, 10 mM Tris pH 7.2; for Hill Coefficients K^+: * estimated from initial rise of fluorescence
Procedure: as §1

[9] = In vitro fluorescence of Mango tagged RNA constructs; format: biochemical; conditions: 40 nM TO1-Biotin, 200 nM RNA
From the text: FIG. 14|RNA scaffold diagrams. Diagrams of the 5S-Mango and U6-Mango constructs synthesized (sequences in Table 2) and their fluorescence emission as a function of wavelength after excitation at 505 nm, compared to unmodified Mango I-IV.
DNA encoding the F30 folding scaffold was modified to incorporate the Mango RNA sequences and ordered from (Intergrated DNA Technologies). The DNA was amplified by PCR to incorporate 5′ SalI and 3′ Xbal restriction sites. PCR products were digested using Fast Digest enzymes (Thermo Fisher) and ligated into SalI/Xbal linearized and Shrimp Alkaline Phosphotase (NEB) treated pAV5S-F30-2xdBroccoli (Addgene plasmid 66845, a gift from Dr S. Jaffrey). DNA encoding the full 5S-F30-Mango sequence was PCR amplified and a 5′ T7 RNA polymerase promoter introduced. DNA was transcribed in vitro with T7 RNA polymerase (NEB) at 37° C. for 16 h in 40 mM Tris-HCl, 30 mM MgCl2, 2 mM spermidine, 1 mM dithiothreitol, 5 mM rNTPs, 1 U/μl E. coli inorganic pyrophosphotase, 4 U/μl T7 RNA polymerase (pH 7.9). RNA was purified from an 8 M urea denaturing polyacrylamide […] gel followed by elution in RNA elution buffer (40 mM Tris-HCl pH 8.0, 0.5 M sodium acetate, 0.1 mM EDTA) and ethanol precipitation.

HEK293T cells = experiment: Cellular imaging of transfected Mango tagged RNAs; format: cell-based; conditions: against 5S-F30-Mango-IV
Procedure: HEK293T cells were grown in Dulbecco Modified Eagle's Medium containing 10% Fetal Bovine Serum, 2 mM D-Glucose, 2 mM L-Glutamine, 1 mM Sodium Pyruvate and 100 U/ml Penicillin/Streptomycin (Thermo Fisher) and maintained at 37° C. with 5% CO2 in a humidified incubator. Cells used for imaging were cultured in Ibidi glass bottomed 8-well chamber slides (Ibidi GmbH).
RNA was transfected directly into 8-well chamber slides using the Lipofectamine-based CRISPRMAX reagent following the manufacturers guidelines (Invitrogen). Initially 125 nM RNA containing 10 mM Sodium Phosphate buffer (pH 7.2), 100 mM KCl and 1 mM MgCl2 was incubated at room temperature followed by a 1:1 dilution in OptiMEM prior to transfection. The RNA transfected was incubated at 37° C. for 1 hour in complete growth medium.
Cells were fixed in PBS containing 4% paraformaldehyde for 10 min on ice (Thermo Fisher) followed by permeabilization in 0.2% Triton X-100 for 10 min at room temperature. Cells were first blocked (2% BSA in PBS) for 30 min followed by primary antibody (1:50-1:500 dilutions) incubation for 120 min in blocking solution.
Primary antibodies used here were: Anti-Ribosomal Protein S6 (MAB5436, R&D Systems), Anti-ATP5B (ab14730, Abcam), Anti-GW182 (ab7052, Abcam), Anti-EEA-1 (ab70521, Abcam), Anti-LSm3 (NBP2-14206, Novus Biologicals), Anti-TIAR (sc-398372, Santa Cruz). Secondary antibodies used were Donkey Anti-mouse and Donkey Anti-Rabbit Alexa Fluor 680 (Molecular Probes). Primary antibodies were washed three times for 20 min each in blocking solution followed by incubation with secondary antibody at 1:500 dilution for 60 min, which was subsequently washed as above.
To visualize the nuclear boundary in live cells, a plasmid expressing a fluorescently tagged histone protein (EBFP2-H2B-6, Addgene plasmid 55243) was transfected using FuGene 6 (Promega) 24 h prior to RNA transfection. […] Following incubation of the RNA transfection, the cells were washed once with PBS and replaced with live-cell imaging media (Fluorobrite DMEM supplemented with 20 mM HEPES, Invitrogen). Live and fixed cell images were taken using a Zeiss Elyra wide-field microscope by exciting at 405 nm (Blue), 488 nm (Green) and 642 nm (Far-Red) and detecting at 420-480 nm, 495-550 nm and >650 nm, respectively. Live cells were maintained at 37° C. with 5% CO2 in a stage top incubator (Tokai Hit). Images were processed using FIJI and spot detection analysis was performed on each maximum projection by the spot detector plugin in the ICY image analysis software, which detects significant foci with a pixel area 3×3 pixels.

[10] = Fluorescence titration, binding affinity for TO1-Biotin
From the text: as §2, §3
Where F([RNA]) is the fluorescence as a function of RNA concentration [RNA], Fmax is the maximal fluorescence of the bound complex and Funbound the fluorescence of the unbound fluorophore. When the fluorescence of Funbound was undetectable, it was set to zero.
Fluorescence readings were recorded using a Varian Cary Eclipse Spectrophotometer set to measure at the maximum excitation and emission wavelengths of the Mango II aptamer dye complex. Fluorescence titrations were performed in Mango selection buffer (WB: 140 mM KCl, 1 mM MgCl2, 10 mM NaH2PO4 pH 7.2, 0.05% Tween-20).

[11] = Brightness response to a fluorophore series; format: biochemical; conditions: 500 nM RNA, 10 nM fluorophore
Procedure: FIG. 53|Brightness response of MI, MII, MIII mutants and MIV to a fluorophore series. Single fluorescence point reads done in triplicate. 500 nM RNa was incubated with 10 nM fluorophore at room temperature for ˜1 h to allow folding of the RNA aptamers in 1×WB (140 mM KCl, 1 mM MgCl2, 10 mM NaH2PO4, pH 7.2.

Circular template = experiment: Rolling circle transcription of Mango III; format: biochemical; conditions: room temperature, excess TO1-Biotin
From the text: FIG. 33|Rolling circle transcription of Mango III.
FIG. 34|Rolling circle transcription of Mango III. Circular construct represented here was used in FIG. 33. Purple: T7 binding site, red and orange template hybridization arms (ligation site between them). Blue Mango sequence.
This illustrates that in select embodiments Mango aptamers may be used for detection of nucleic acids in a two-step fluorescence-based detection system using the Mango aptamers as the reporter. […] Nucleic acid concentration can be discerned by a simple fluorescence reading. In these assays, the Mango III fluorescence emerged rapidly upon the addition of the RNA polymerase (FIG. 32).

[12] = Na+ in place of K+, 25 nM RNA, 50 nM TO1-Biotin

Substance	resistance to formaldehyde [1]	fluorescence in the presence of sodium ions [2]	effect of high levels of Mg^2+ on fluorescence [3]	brightness of the TO1-Biotin bound complex [6]	bleaching half-lives longer than RNA Spinach [7]	Kd [8]	Hill Coefficients K^+ [8]	brighter than Mango-I [6]	TO1-Biotin binding affinity (in words) [10]	further results
Mango-I: original RNA Mango aptamer; core SEQ ID NO: 1 GAAGGGACGGUGCGGAGAGGAGA (chemistry not given here) [reference compound]	substantially resistant to formaldehyde	did not fluoresce appreciably	strongly inhibited	11,000 M^−1cm^−1	10 times	48 ± 5 mM	1.2 ± 0.1			Kd [4]: ~0.003 µM; Kd ([4]; listed as RNA Mango): 0.0031 µM; Kd [5]: 0.008 µM; quantum yield of the TO1-Biotin complex [6]: 0.14
U6-Mango-IV: U6 snRNA with Mango-IV in an internal stem loop; SEQ ID NO: 6896 [Mango U6-Mango-IV]										fluorescence intensity in vitro [9]: comparable fluorescence intensity to Mango IV alone; increase of the fraction of nuclear foci (HEK293T cells): ~9 fold
Mango-IV: minimal construct engineered from isolate R5-NMM-5	substantially resistant to formaldehyde	limited fluorescence response	significantly resistant	32,000 M^−1cm^−1	10 times	64 ± 24 mM	1.5 ± 0.2*	3 fold	slightly weaker affinities than Mango-I	decrease in binding affinity on replacing CGA with GAA ([10]; Mango-IV sequence variant against Mango-IV): four-fold
Mango-III: minimal construct engineered from isolate R5-NMM-20; two-tiered G-quadruplex aptamer			only modestly inhibited	43,000 M^−1cm^−1		0.4 ± 0.1 mM	1.0 ± 0.8*	4 fold	slightly weaker affinities than Mango-I	Hill Coefficients Na^+ [2, 12]: 0.5 ± 0.5; Kd [2, 12]: 0.8 ± 0.3 mM; brighter than enhanced GFP (EGFP) ([6]; TO1-Biotin bound complex): 1.3 times; higher affinity of the fluorescence response to potassium and sodium ([8]; against the other Mangos): two order of magnitude; binding of TO1 fluorophore derivatives [11]: bound to a broad set of TO1 fluorophore derivatives; sensitivity (Circular template): 5 nM
